Source: the NIST ThermoML archive (doi:10.1021/je4009415)

Assay: xn = mol fraction of the nth substance listed
Details: Liquid, Vibrating tube method

CCOC(=O)CC [ethyl propanoate] + CCCCCCC
Details	mass density [kg/m3]
288.15 K, x1 = 0.0524	695.91
288.15 K, x1 = 0.0988	703.07
288.15 K, x1 = 0.1463	710.63
288.15 K, x1 = 0.1941	718.6
288.15 K, x1 = 0.2514	728.31
288.15 K, x1 = 0.3018	737.02
288.15 K, x1 = 0.3473	745.24
288.15 K, x1 = 0.4004	755.32
288.15 K, x1 = 0.4483	764.49
288.15 K, x1 = 0.5023	775.33
288.15 K, x1 = 0.5493	785.04
288.15 K, x1 = 0.6523	807.55
288.15 K, x1 = 0.7155	821.91
288.15 K, x1 = 0.7532	830.95
288.15 K, x1 = 0.7965	841.54
288.15 K, x1 = 0.8566	856.59
288.15 K, x1 = 0.9037	868.82
288.15 K, x1 = 0.9502	881.54
288.15 K, x1 = 1	895.58
298.15 K, x1 = 0.0502	687.02
298.15 K, x1 = 0.0966	693.85
298.15 K, x1 = 0.1618	704.16
298.15 K, x1 = 0.24	717.15
298.15 K, x1 = 0.3102	729.24
298.15 K, x1 = 0.401	745.76
298.15 K, x1 = 0.4502	755.12
298.15 K, x1 = 0.5047	765.87
298.15 K, x1 = 0.598	785.24
298.15 K, x1 = 0.6478	796.11
298.15 K, x1 = 0.6968	807.1
298.15 K, x1 = 0.7456	818.46
298.15 K, x1 = 0.7933	829.93
298.15 K, x1 = 0.8547	845.07
298.15 K, x1 = 0.9029	857.64
298.15 K, x1 = 0.952	870.77
298.15 K, x1 = 1	884.15
308.15 K, x1 = 0.0489	677.99
308.15 K, x1 = 0.0972	685.13
308.15 K, x1 = 0.1622	695.08
308.15 K, x1 = 0.2109	702.86
308.15 K, x1 = 0.2409	707.93
308.15 K, x1 = 0.3084	719.36
308.15 K, x1 = 0.352	727.08
308.15 K, x1 = 0.4029	736.28
308.15 K, x1 = 0.44	743.31
308.15 K, x1 = 0.5033	755.53
308.15 K, x1 = 0.5515	765.29
308.15 K, x1 = 0.6049	776.34
308.15 K, x1 = 0.6546	787.12
308.15 K, x1 = 0.6957	796.27
308.15 K, x1 = 0.7472	808.1
308.15 K, x1 = 0.8001	820.72
308.15 K, x1 = 0.8549	834.09
308.15 K, x1 = 0.8932	843.97
308.15 K, x1 = 0.949	858.62
308.15 K, x1 = 1	872.62
318.15 K, x1 = 0.0535	669.87
318.15 K, x1 = 0.0979	676.31
318.15 K, x1 = 0.1459	683.47
318.15 K, x1 = 0.2045	692.71
318.15 K, x1 = 0.262	702.04
318.15 K, x1 = 0.3009	708.59
318.15 K, x1 = 0.3494	717.01
318.15 K, x1 = 0.4057	727.08
318.15 K, x1 = 0.4487	735.05
318.15 K, x1 = 0.5052	745.9
318.15 K, x1 = 0.552	755.16
318.15 K, x1 = 0.5969	764.38
318.15 K, x1 = 0.6529	776.27
318.15 K, x1 = 0.7022	787.15
318.15 K, x1 = 0.7467	797.21
318.15 K, x1 = 0.7935	808.2
318.15 K, x1 = 0.8452	820.6
318.15 K, x1 = 0.8929	832.6
318.15 K, x1 = 0.9484	847.05
318.15 K, x1 = 1	861.08
328.15 K, x1 = 0.0528	660.86
328.15 K, x1 = 0.1065	668.58
328.15 K, x1 = 0.1619	676.84
328.15 K, x1 = 0.2123	684.53
328.15 K, x1 = 0.2511	690.83
328.15 K, x1 = 0.3081	700.22
328.15 K, x1 = 0.3519	707.73
328.15 K, x1 = 0.4084	717.71
328.15 K, x1 = 0.4478	724.83
328.15 K, x1 = 0.5074	736.13
328.15 K, x1 = 0.5522	744.86
328.15 K, x1 = 0.6033	755.17
328.15 K, x1 = 0.6454	764.1
328.15 K, x1 = 0.7023	776.34
328.15 K, x1 = 0.7443	785.77
328.15 K, x1 = 0.7989	798.4
328.15 K, x1 = 0.8593	812.97
328.15 K, x1 = 0.8983	822.61
328.15 K, x1 = 0.9494	835.87
328.15 K, x1 = 1	849.41
